From a melting point compilation (Tetko et al.; mined from patent text by program, amines drawn as free bases though some values may be those of a salt)

Row | SMILES | melting point [°C]
1 | CN(c1cccc2cc(C3=NCC(C)(C#N)S3)[nH]c12)S(=O)(=O)c1cccs1 (centres undefined) | 178 to 179
2 | O=C(Nc1cc(C(F)(F)F)ccc1N1CCCC1)c1ccncc1 | 134 to 135
3 | CC(=S)NC[C@H]1CN(c2ccc(C3CCS(=O)(=O)N(C)C3)c(F)c2)C(=O)O1 (some centres undefined) | 95 to 98
4 | CCc1noc(-c2cn(-c3ccc(Oc4ccccc4)cc3)cn2)n1 | 172 to 173
5 | CC(C)OC(=O)C1Oc2ccccc2Cc2ccccc2O1 | 94 to 97
6 | NCc1ccc(CO)cc1 | 102 to 123
7 | CSc1ccc(CC(=O)NC(NC(=NC#N)Nc2ccccc2C)C(C)(C)C)cc1 (centres undefined) | 151 to 152
8 | CCCOc1ccc(S(=O)(=O)N2CCN(CC)CC2)cc1-c1nc2cc3ncn(Cc4ccccc4OC)c3cc2c(=O)[nH]1 | 180 to 182
9 | COc1cc(-c2nc(N3CCNC(C)C3)c3c(C)c(C#N)sc3n2)cc(OC)c1OC (centres undefined) | 213 to 215
10 | O=C(NC1CC=CCC1)NS(=O)(=O)c1ccc2c(c1)CCN(C(=O)N1CCCC1)CC2 (centres undefined) | 211 to 212
11 | COCc1ccc2cccnc2c1Cl | 78 to 79
12 | COC(=O)[C@H](Cc1ccc(N2C(=O)c3ccc(Br)cc3C2=O)cc1)NC(=O)OC(C)(C)C | 168 to 170
13 | CCOC(=O)CC(NC(C)=O)C(=O)c1ccco1 (centres undefined) | 82 to 84
14 | CC(C)(CO)NS(=O)(=O)c1cccc(Br)c1 | 138
15 | COc1ccc(CON(Cc2ccccc2)S(C)(=O)=O)cc1 | 85 to 87
16 | Cc1cccc(C)c1NC(=O)C(C)N1CCN(CCC2CCOc3ccccc32)CC1 (centres undefined) | 130
17 | O=c1c(-c2ccc(Cl)cc2)c2c(cn1CO)Sc1ccccc1N2 | > 300
18 | CC(O)c1cc(C[C@H](NC(=O)c2c(Cl)cccc2Cl)C(=O)O)ccc1-c1ccccc1 (some centres undefined) | 115 to 117
19 | Cc1noc(NS(=O)(=O)c2ccccc2-c2ccc(-c3ncco3)cc2CN(C)C(=O)CC(F)(F)F)c1C | 85 to 100
20 | CC(C)OC(=O)C(C(=O)OC(C)C)=C1SC2C(S1)N(C(C)C)CCN2C(C)C (centres undefined) | 82 to 84
21 | O=c1[nH]c2cc(Br)ccc2c(=O)n1Cc1ccc(I)cc1F | 303 to 304
22 | CC1(C)Oc2ccc(C#N)cc2C(n2nc(O)ccc2=O)C1O (centres undefined) | 251 to 252
23 | CCn1nccc1NC(=O)c1ccc(OC)c2oc(COC)cc12 | 97 to 99
24 | C[Si](C)(C)CCCCCC1=C(O)C(=O)c2ccccc2C1=O | 73 to 75
25 | CN(C)C=C(C=O)OCCO | 148 to 150

Row | SMILES | melting point [°C]
26 | CCCN(CCC)C(=O)c1cc(C(=O)O)cc(-c2ncco2)c1 | 131 to 133
27 | Fc1cc(F)c(F)c(N=C2NCCN2)c1F | 147 to 148
28 | CN(C)S(=O)(=O)Oc1c(I)cc(C(C)(C)C)cc1CN | 94 to 95
29 | Cc1c(-c2ccccc2)nc2ccc(-c3cccc(CO)c3)cn12 | 222 to 223
30 | COc1ccc2c(CCN3CCCCC3=O)c[nH]c2c1 | 146
31 | Clc1ccc2c(c1)CCc1cccnc1C2=C1CCN(Cc2cccnc2Cl)CC1 | 56.6 to 60.2
32 | O=[N+]([O-])c1cccc(P(=O)(O)O)c1 | 148 to 155
33 | CSc1nc([C@@H]2C[C@H]2c2nc3ccccc3n2C)cc(-n2nc(C)nc2C)n1 (relative stereo) | 157 to 159
34 | Cc1noc(NS(=O)(=O)c2ccccc2-c2ccc(-c3cccnc3)cc2)c1C | 96 to 106
35 | O=c1[nH]nc2c3c(cccc13)N=CN2 | > 300
36 | CCn1nccc1Nc1cc(OC)ccc1C(=O)O | 130 to 135
37 | COc1cc(C#N)ccc1C | 51 to 52.5
38 | Nc1c(N=O)c(=O)n(CC2CCCCCC2)c(=O)n1CC1CCCCCC1 | > 250
39 | O=C(O)c1nn(-c2ccc(Cl)cc2)c2c1CCCC2 | 218
40 | Cc1ccc(-c2nc(CCl)c(C)o2)cc1 | 91 to 93
41 | O=C(O)/C=C/c1ccc(OCc2ccccc2)cc1OCc1ccccc1 | 153 to 155
42 | OCc1c(F)c(Cl)c(F)c(Cl)c1F | 67 to 68
43 | O=C1C(c2ccccc2)=C(c2cccs2)C(=O)N1c1ccc(Cl)cc1 | 176 to 177
44 | Cc1c(NC(=O)c2ccc(OCc3ccccc3)cc2)ccc2cc(CN3CCCCC3)cnc12 | 186 to 187
45 | O=S(=O)(c1ccc(Cl)cc1)C(c1ccncc1)c1cc(F)ccc1F (centres undefined) | 126 to 127
46 | COc1nc(O)cc(=O)n1C | 170 to 171
47 | CC(C)n1nc(-c2ncc(N)nc2-c2ccccc2Br)ccc1=O | 189 to 191
48 | NS(=O)(=O)Oc1ccccc1 | 81 to 85
49 | CC(C)CN1CCC(CNc2ccc(Cl)cc2C(=O)Nc2ccc(Cl)cn2)CC1 | 121 to 122
50 | CC(C)C[C@H](NC(=O)[C@H](CS)C(F)(F)F)c1nnn[nH]1 | 183 to 184

Row | SMILES | melting point [°C]
51 | O=c1[nH]c2ccc(S(=O)CCCl)cc2o1 (centres undefined) | 150 to 155
52 | COc1ccc2c(c1)N(C1=CCCN1C1=NCCC1)c1ccccc1S2 | 151 to 153
53 | OCc1ccccc1NCc1cc2c(cc1O)CCCO2 | 141 to 142
54 | COC(=O)CSc1cc(=O)n(C)c(=O)n1C | 96 to 97.5
55 | Cc1sc2c(c1C)C(c1ccc(Cl)cc1)=NC(CC(=O)O)c1nnc(C)n1-2 (centres undefined) | 166 to 177
56 | CC(C)c1nc(CC(=O)O)c(-c2ccco2)o1 | 108 to 109
57 | CC1SC(c2cccnc2)N(c2ccccc2F)C1=O (centres undefined) | 112
58 | CCCCCCCCCCCCCCCCCCN(CCCCCCCCCCCCCCCCCC)c1ccccc1 | 110 to 111
59 | COc1cccc(OC)c1C(=O)Nc1nnc(-c2nc3ccccc3s2)s1 | > 260
60 | CC(=O)c1ccc(OCCCN2CCC(c3noc4cc(F)ccc34)CC2)c(Br)c1 | 126 to 128
61 | CCn1cc(C(=O)O)c(=O)c2cc(F)c(N3CCN(C)C(COC)C3)cc21 (centres undefined) | 228 to 230
62 | CNC(=O)C(Cc1ccc2ccccc2c1)NC(=O)OC(C)(C)C (centres undefined) | 177 to 179
63 | COC(=O)C12CC(C(=O)OC)(C1)C2 | 92
64 | Cc1cc2ncc(NC(=O)C=Cc3ccc(O)c(O)c3)c(-c3ccccc3Cl)c2cc1C | 272 to 274
65 | NC1c2ccccc2CC12C(=O)Nc1ccccc12 (centres undefined) | 195 to 197
66 | COc1ncc(Br)cc1/C=C/C(=O)c1ccc(Cl)cc1 | 168 to 172
67 | c1ccc(CCC2CCN(Cc3n[nH]c4ccccc34)CC2)cc1 | 153 to 155
68 | Clc1ccc(C(c2ccccc2)N2CCN(c3nc4cccc5c4n3CCC5)CC2)cc1 (centres undefined) | 167 to 169
69 | COC(=O)CN1CC(N2C(=O)c3ccccc3C2=O)C1=O (centres undefined) | 178 to 180
70 | Cc1nc(N2CCN(CC3CC3)C2=O)sc1C(=O)NCc1cncc(F)c1 | 144 to 145
71 | O=C(O)CCc1ccc(OCc2sc3ccccc3c2Cl)cc1 | 136 to 137
72 | CCCCNC(=O)c1ccc(Cl)c(-n2nc(CCCC)n(Cc3ccc(-c4ccccc4S(N)(=O)=O)cc3F)c2=O)c1 | 108 to 110
73 | COC(=O)C(Oc1ccc(C(=O)CN2CCN(c3ccncc3)CC2)cc1)C(=O)OC | 115 to 116
74 | O=C(O)CCSC1c2ccc(SCC(=O)O)cc2COc2ccc(OCc3ccc4ccc(Cl)cc4n3)cc21 (centres undefined) | 165 to 167
